Experiments:
Poria placenta = assay: In vitro malt agar test, colony diameter; format: cell-based; settings: assessed after 6 days
Method: (§1) A 50% SC of fluquinconazole (fq) was incorporated into malt agar at various rates and the agar placed into Petri dishes. Into the centre of each plate was implanted a 4 mm plug of the mycelium of a wood rotting fungus. The plates were kept at 20° C. in a darkened room for 6 days when the control of the fungus by the fluquinconazole was assessed. The experiment was also carried out with a fluquinconazole formulation containing di(2-ethylhexyl)octyl phosphonate (ph) with and without prochloraz (pz).

Coniophora puteana = assay: In vitro malt agar test, colony diameter; format: cell-based; settings: assessed after 6 days
Method: as §1

Coriolus versicolor = assay: In vitro malt agar test, colony diameter; format: cell-based; settings: assessed after 6 days
Method: as §1

sapstain fungi = assay: In vivo test of activity against sapstain fungi (dipped pine bundles); settings: 50% suspension concentrate diluted to 0.25%, 60 s dip, after 4 weeks; compared with wood dipped only in water
Text: Bundles consisting of 7 pieces of freshly cut pine (approximate sizes of 20 cm×30 cm) were dipped in a 50% suspension concentrate of fluquinconazole, diluted to 0.25%, for 60 seconds, ensuring each piece of wood was separated from its contacting pieces. The wood was removed from the liquid and allowed to drain for 10 seconds and then placed in an unsealed polythene bag at room temperature. The bag was used in order to maintain a high relative humidity, which promotes growth of sapstain. The wood was removed for examination after 4 weeks and divided into two in order to expose the centre of the bundles. These were assessed for sapstain infection.

[1] = test system: wood rotting fungi (mainly basidiomycetes); assay: In vivo test of activity against wood destroying fungi (dipped pine pieces); settings: 100 ppm fluquinconazole, formulation containing di(2-ethylhexyl)octyl phosphonate, 5 weeks in sealed bag, compared with standards without pesticide
Method: Pieces of pine were dipped into a fluquinconazole formulation containing di(2-ethylhexyl)octyl phosphonate at different rates and then removed and put, whilst soaking wet, into a polythene bag which was sealed and left in a greenhouse for 5 weeks. The degree of control of wood rotting fungi (mainly basidiomycetes) was then assessed.

Gloephyllum trabeum = assay: In vitro malt agar test, colony diameter; format: cell-based; settings: assessed after 11 days
Method: A 50% SC of fluquinconazole (fq) was incorporated into malt agar at various rates and the agar placed into Petri dishes. Into the centre of each plate was implanted a 4 mm plug of the mycelium of a wood rotting fungus. […] The experiment was also carried out with a fluquinconazole formulation containing di(2-ethylhexyl)octyl phosphonate (ph) with and without prochloraz (pz).

SMILES: O=c1c2cc(F)ccc2nc(-n2cncn2)n1-c1ccc(Cl)cc1Cl [fluquinconazole, 3-(2,4-dichlorophenyl)-6-fluoro-2-(1H-1,2,4-triazol-1-yl)-4(3H)-quinazolinone]
- % Control based on colony diameter (Poria placenta; 1 ppm): 99.4%
- % Control based on colony diameter (Poria placenta; 5 ppm): 100.0%
- % Control based on colony diameter (Poria placenta; 10 ppm): 100.0%
- % Control based on colony diameter (Poria placenta; 25 ppm): 100.0%
- % Control based on colony diameter (Poria placenta; 100 ppm): 100.0%
- % Control based on colony diameter (Coniophora puteana; 1 ppm): 50.4%
- % Control based on colony diameter (Coniophora puteana; 5 ppm): 75.6%
- % Control based on colony diameter (Coniophora puteana; 10 ppm): 84.7%
- % Control based on colony diameter (Coniophora puteana; 25 ppm): 68.7%
- % Control based on colony diameter (Coniophora puteana; 100 ppm): 77.9%
- % Control based on colony diameter (Coriolus versicolor; 1 ppm): 100.0%
- % Control based on colony diameter (Coriolus versicolor; 5 ppm): 100.0%
- % Control based on colony diameter (Coriolus versicolor; 10 ppm): 100.0%
- % Control based on colony diameter (Coriolus versicolor; 25 ppm): 100.0%
- % Control based on colony diameter (Coriolus versicolor; 100 ppm): 100.0%
- control of the sapstain (sapstain fungi): > 60%
- control of wood rotting fungi [1]: 73.1%
- % Control based on colony diameter (Gloephyllum trabeum; 1 ppm): 80.5%
- % Control based on colony diameter (Gloephyllum trabeum; 5 ppm): 94.0%
- % Control based on colony diameter (Gloephyllum trabeum; 10 ppm): 95.0%
- % Control based on colony diameter (Gloephyllum trabeum; 25 ppm): 92.5%
- % Control based on colony diameter (Gloephyllum trabeum; 100 ppm): 94.0%

Source: US6399623B1, “Wood treatment” (Agrevo UK Ltd., priority 1998, dated 2002)
